Source: patent publication US9957270B2, “Fused pyrimidine-based hydroxamate derivatives” (Agency for Science, Technology and Research, priority 2014, dated 2018)

How the values were obtained:
MCF7 = test: Anti-proliferative assay (cellular IC50), MCF7; conditions: Homo sapiens, MCF7, 72 h, read-out: In Vitro Cellular IC50 MCF7
Protocol: (§1) Cells were cultivated at 37° C., 5% CO2 in media containing 10% FBS and 2 mM glutamine Cells were routinely monitored with MycoAlert™ PLUS Mycoplasma Detection Kit (Lonza Walkersville, Inc.) to make sure they were mycoplasma free. Antibiotics (100 U/mL of penicillin and 100 μg/mL of streptomycin) were only added to the media used for compound dilution and cells in 96-well assay plates.
(§2) For a typical screening experiment, cells (100 μL/well) are inoculated into 96 well microtiter plates at plating densities ranging from 2,000 to 30,000 cells/well depending on the doubling time of individual cell lines and assay linearity. […] Suspension cells are treated with test compounds immediately after cell inoculation.
(§3) Test compounds are serially diluted (3-fold or 4-fold, 8-concentration) using the same media and added to the plates (15 to 25 μL/well). After 72 h of cultivation, the plates are assayed for cell cytotoxicity/viability by using the following two methods.
(§4) Cells in plates are fixed with cold trichloroacetic acid (TCA) (50% w/v in DI water, 1/4 volume of the medium in each well), and incubated at 4° C. for 1 h (adherent cells) or 2 h (suspension cells). The plates are washed 5 times (tap water×3, DI water×2) and air-dried. SRB solution 0.4% (w/v) in 1% acetic acid is added to each well (60 μL/well) and the plates are incubated at room temperature for 30 min, then washed with 1% acetic acid solution 4 times, and air-dried.
(§5) The plates are added CellTiter-Glo® Reagent (95 μL/well) and read the luminescence on a BioTek H4 reader per manufacture's protocol.
(§6) The raw data are processed using BioTek's Software Gen5 (v2.03.01) to generate inhibitory IC50 values.

MV-4-11 = test: cells; conditions: Homo sapiens, MV4-11, 72 h, read-out: In Vitro Cellular IC50 MV-4-11
Protocol: as §1, §2, §3, §4, §5, §6

K-562 = test: Anti-proliferative assay (cellular IC50), K-562; conditions: Homo sapiens, K562, 72 h, read-out: In Vitro Cellular IC50 K-562
Protocol: as §1, §2, §3, §4, §5, §6

COLO 205 = test: cells; conditions: Homo sapiens, COLO 205, 72 h, read-out: In Vitro Cellular IC50 COLO 205
Protocol: as §1, §2, §3, §4, §5, §6

HDAC6 = target: T1, HDAC6 (Homo sapiens, UniProt Q9UBN7); test: HDAC enzyme assay, recombinant HDAC6
T1 sequence (Q9UBN7 1-1215): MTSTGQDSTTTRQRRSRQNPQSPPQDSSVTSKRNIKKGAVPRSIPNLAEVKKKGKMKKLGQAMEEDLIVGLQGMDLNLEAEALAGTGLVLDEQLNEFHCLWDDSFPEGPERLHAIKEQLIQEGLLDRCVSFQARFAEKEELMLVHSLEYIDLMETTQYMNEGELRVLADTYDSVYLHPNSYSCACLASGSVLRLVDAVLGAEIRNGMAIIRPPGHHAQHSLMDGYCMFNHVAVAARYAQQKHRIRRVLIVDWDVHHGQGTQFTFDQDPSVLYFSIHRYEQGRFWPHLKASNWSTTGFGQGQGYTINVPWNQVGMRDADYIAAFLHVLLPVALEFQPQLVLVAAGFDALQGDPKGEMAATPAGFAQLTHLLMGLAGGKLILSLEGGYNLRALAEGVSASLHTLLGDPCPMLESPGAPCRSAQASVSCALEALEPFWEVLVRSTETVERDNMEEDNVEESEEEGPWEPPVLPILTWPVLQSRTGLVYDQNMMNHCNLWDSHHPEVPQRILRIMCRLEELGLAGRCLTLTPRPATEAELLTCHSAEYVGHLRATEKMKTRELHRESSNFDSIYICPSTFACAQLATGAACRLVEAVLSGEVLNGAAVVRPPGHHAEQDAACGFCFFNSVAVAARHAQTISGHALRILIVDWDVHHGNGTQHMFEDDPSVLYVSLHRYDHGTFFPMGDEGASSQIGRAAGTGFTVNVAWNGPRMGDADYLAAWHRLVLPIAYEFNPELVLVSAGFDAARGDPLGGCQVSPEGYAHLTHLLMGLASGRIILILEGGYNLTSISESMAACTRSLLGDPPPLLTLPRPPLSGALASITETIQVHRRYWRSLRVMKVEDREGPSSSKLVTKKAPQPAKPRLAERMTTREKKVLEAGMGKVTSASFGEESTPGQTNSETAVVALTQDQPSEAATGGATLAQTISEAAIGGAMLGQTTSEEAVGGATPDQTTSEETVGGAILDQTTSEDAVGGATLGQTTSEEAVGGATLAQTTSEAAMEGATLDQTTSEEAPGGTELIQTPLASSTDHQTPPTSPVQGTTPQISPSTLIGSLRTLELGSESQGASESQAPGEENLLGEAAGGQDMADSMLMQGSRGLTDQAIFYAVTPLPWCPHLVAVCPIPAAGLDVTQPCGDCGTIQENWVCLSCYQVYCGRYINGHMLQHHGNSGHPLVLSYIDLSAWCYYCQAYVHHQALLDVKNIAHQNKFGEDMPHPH

PI3Kα = target: T2, PI3Kα (Homo sapiens, UniProt P42336); test: Kinase enzyme assay (ADP-Glo), PI3Kα; type: biochemical; conditions: read-out: In Vitro Enzymatic IC50 PI3Kα
T2 construct: purchased Invitrogen, or BPS Bioscience Inc., or SignalChem PV4788 / 40620 / P27-18H
T2 sequence (P42336 whole entry): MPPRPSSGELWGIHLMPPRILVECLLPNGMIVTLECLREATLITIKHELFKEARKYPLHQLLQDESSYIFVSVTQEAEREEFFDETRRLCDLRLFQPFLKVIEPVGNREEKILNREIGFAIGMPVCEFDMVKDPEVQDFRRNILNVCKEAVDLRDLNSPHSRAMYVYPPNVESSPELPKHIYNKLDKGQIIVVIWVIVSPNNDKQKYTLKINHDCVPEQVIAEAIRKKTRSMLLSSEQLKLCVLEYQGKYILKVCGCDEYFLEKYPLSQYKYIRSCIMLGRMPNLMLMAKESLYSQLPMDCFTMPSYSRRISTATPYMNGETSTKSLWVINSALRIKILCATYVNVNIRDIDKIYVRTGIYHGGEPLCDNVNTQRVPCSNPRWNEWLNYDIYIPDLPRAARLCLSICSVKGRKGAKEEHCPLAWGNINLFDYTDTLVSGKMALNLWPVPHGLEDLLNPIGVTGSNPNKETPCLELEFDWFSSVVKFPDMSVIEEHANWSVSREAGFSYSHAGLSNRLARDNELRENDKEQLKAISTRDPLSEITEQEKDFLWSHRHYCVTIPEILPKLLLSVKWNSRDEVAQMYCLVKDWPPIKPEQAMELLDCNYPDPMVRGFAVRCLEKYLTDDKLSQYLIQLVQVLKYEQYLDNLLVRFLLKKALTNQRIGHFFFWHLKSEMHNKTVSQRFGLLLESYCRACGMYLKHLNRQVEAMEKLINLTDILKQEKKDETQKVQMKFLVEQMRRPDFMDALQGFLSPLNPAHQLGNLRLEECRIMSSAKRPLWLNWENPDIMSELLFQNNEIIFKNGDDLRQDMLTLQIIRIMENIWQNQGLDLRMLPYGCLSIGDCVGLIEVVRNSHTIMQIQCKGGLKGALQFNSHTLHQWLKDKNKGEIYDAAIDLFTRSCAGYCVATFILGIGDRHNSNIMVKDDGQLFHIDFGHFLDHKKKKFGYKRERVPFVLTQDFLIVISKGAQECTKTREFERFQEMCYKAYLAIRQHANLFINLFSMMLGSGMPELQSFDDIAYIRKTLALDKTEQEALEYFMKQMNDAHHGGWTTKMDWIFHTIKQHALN
T2 sequence (P27986 whole entry partner): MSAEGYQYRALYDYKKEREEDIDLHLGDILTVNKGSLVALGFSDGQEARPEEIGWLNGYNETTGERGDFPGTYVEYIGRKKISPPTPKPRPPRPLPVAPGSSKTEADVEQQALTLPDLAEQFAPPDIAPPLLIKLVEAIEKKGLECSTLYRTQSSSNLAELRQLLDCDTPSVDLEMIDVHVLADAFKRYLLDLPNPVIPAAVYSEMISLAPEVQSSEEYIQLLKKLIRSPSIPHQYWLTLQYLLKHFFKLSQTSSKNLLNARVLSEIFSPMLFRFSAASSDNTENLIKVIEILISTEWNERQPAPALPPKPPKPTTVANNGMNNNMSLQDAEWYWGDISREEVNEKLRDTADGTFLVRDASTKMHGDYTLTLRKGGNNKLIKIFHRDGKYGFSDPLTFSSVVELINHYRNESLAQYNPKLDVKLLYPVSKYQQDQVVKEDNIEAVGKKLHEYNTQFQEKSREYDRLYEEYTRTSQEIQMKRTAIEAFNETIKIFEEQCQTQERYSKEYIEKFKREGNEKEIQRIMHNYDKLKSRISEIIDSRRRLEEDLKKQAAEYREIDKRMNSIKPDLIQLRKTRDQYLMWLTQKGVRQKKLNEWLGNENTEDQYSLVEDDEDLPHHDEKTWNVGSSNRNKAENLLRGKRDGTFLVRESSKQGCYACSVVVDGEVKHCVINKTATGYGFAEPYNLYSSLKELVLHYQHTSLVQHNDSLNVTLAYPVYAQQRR

HDAC1 = HDAC1 (Homo sapiens, UniProt Q13547); test: HDAC enzyme assay, recombinant HDAC1
HDAC1, sequence (Q13547 whole entry): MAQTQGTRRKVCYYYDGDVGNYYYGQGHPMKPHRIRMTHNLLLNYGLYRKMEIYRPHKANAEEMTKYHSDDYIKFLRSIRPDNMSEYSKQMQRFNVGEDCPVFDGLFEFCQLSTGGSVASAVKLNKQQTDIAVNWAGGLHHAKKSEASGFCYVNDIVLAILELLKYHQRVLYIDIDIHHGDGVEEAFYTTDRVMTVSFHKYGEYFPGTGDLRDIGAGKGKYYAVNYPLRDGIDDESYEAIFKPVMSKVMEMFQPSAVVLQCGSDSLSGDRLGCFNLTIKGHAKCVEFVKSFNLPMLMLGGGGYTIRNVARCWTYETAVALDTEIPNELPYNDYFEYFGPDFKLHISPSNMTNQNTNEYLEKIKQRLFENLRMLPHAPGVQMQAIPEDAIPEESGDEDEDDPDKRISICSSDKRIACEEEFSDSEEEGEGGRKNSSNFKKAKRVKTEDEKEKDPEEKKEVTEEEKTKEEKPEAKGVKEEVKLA

MOLT-4 = test: Anti-proliferative assay (cellular IC50), MOLT-4; conditions: Homo sapiens, MOLT-4, 72 h, read-out: In Vitro Cellular IC50 MOLT-4
Protocol: as §1, §2, §3, §4, §5, §6

[1] = target: HDAC (HeLa nuclear extracts); test: HDAC enzyme assay, HeLa nuclear extracts; conditions: read-out: In Vitro Enzymatic IC50 HDAC (HeLa)
PC-3 = test: Anti-proliferative assay (cellular IC50), PC-3; conditions: Homo sapiens, PC-3, 72 h, read-out: In Vitro Cellular IC50 PC-3
Protocol: as §1, §2, §3, §4, §5, §6

HCT 116 = test: cells; conditions: Homo sapiens, HCT-116, 72 h, read-out: In Vitro Cellular IC50 HCT 116

SMILES: Cc1c(CN2CCN(C(=O)[C@H](C)O)CC2)sc2c(N3CCOCC3)nc(-c3cnc(N)nc3)nc12 [GDC-0980, reference compound]
- IC50 (MCF7): 2000 to 10000 nM
- IC50 (MV-4-11): > 10000 nM
- IC50 (K-562): 2000 to 10000 nM
- IC50 (COLO 205): < 500 nM

SMILES: O=C(CCCCCCn1ccc2c(N3CCOCC3)nc(-c3cccc(O)c3)nc21)NO [compound 79, N-hydroxy-7-(2-(3-hydroxyphenyl)-4-morpholino-7H-pyrrolo[2,3-d]pyrimidin-7-yl)heptanamide]
- IC50 (HDAC6): < 10 nM

SMILES: CC(C)n1cnc2c(-c3cccc(OCC(=O)NO)c3)nc(N3CCOCC3)nc21 [compound 24, N-hydroxy-2-(3-(9-isopropyl-2-morpholino-9H-purin-6-yl)phenoxy)acetamide]
- IC50 (PI3Kα): 1000 to 10000 nM
- IC50 (HDAC1): 1000 to 10000 nM

SMILES: Nc1ncc(-c2nc(N3CCOCC3)c3ncn(CCCCCCC(=O)NO)c3n2)cn1 [compound 41, 7-(2-(2-aminopyrimidin-5-yl)-6-morpholino-9H-purin-9-yl)-N-hydroxyheptanamide]
- IC50 (HDAC6): < 10 nM

SMILES: CCn1c(CN2CCC(C(=O)NO)CC2)nc2c(N3CCOCC3)nc(-c3cnc(N)nc3)nc21 [compound 88, 1-((2-(2-aminopyrimidin-5-yl)-9-ethyl-6-morpholino-9H-purin-8-yl)methyl)-N-hydroxypiperidine-4-carboxamide]
- IC50 (HDAC1): 1000 to 10000 nM
- IC50 (MOLT-4): 2000 to 10000 nM
- IC50 (K-562): > 10000 nM
- IC50 (COLO 205): > 10000 nM

SMILES: CCN(CC)c1nc2c(-c3cnc(N)nc3)nc(N3CCOCC3)nc2n1CCCC(=O)NO [compound 28, 4-(6-(2-aminopyrimidin-5-yl)-8-(diethylamino)-2-morpholino-9H-purin-9-yl)-N-hydroxybutanamide]
- IC50 [1]: 1000 to 10000 nM
- IC50 (HDAC1): 1000 to 10000 nM

SMILES: COc1ncc(-c2nc(N3CCOCC3)c3ncn(CCCCCCC(=O)NO)c3n2)cn1 [compound 55, N-hydroxy-7-(2-(2-methoxypyrimidin-5-yl)-6-morpholino-9H-purin-9-yl)heptanamide]
- IC50 (HDAC6): 10 to 100 nM

SMILES: O=C(CCCCCCn1cnc2c(N3CCC(CO)CC3)nc(-c3cccc(CO)c3)nc21)NO [compound 103, N-hydroxy-7-(2-(3-(hydroxymethyl)phenyl)-6-(4-(hydroxymethyl)piperidin-1-yl)-9H-purin-9-yl)heptanamide]
- IC50 [1]: < 10 nM
- IC50 (MCF7): 500 to 2000 nM
- IC50 (MV-4-11): < 500 nM
- IC50 (MOLT-4): < 500 nM

SMILES: CCN(CC)c1nc(-c2cccc(OCCCC(=O)NO)c2)c2ncn(C(C)C)c2n1 [compound 30, 4-(3-(2-(diethylamino)-9-isopropyl-9H-purin-6-yl)phenoxy)-N-hydroxybutanamide]
- IC50 (PC-3): < 500 nM
- IC50 [1]: 100 to 1000 nM
- IC50 (MCF7): 2000 to 10000 nM
- IC50 (MV-4-11): < 500 nM
- IC50 (HDAC1): 1000 to 10000 nM
- IC50 (K-562): 2000 to 10000 nM
- IC50 (COLO 205): 2000 to 10000 nM

SMILES: CC(=O)Nc1cccc(-c2nc(N3CCOCC3)c3ncn(CCCCCCC(=O)NO)c3n2)c1 [compound 48, 7-(2-(3-acetamidophenyl)-6-morpholino-9H-purin-9-yl)-N-hydroxyheptanamide]
- IC50 (HDAC6): < 10 nM

SMILES: CC(C)n1cnc2c(N3CCOCC3)nc(-c3cccc(NC(=O)CCCCCCC(=O)NO)c3)nc21 [compound 85, N^1-hydroxy-N^8-(3-(9-isopropyl-6-morpholino-9H-purin-2-yl)phenyl)octanediamide]
- IC50 (PC-3): 2000 to 10000 nM
- IC50 [1]: < 10 nM
- IC50 (MCF7): 500 to 2000 nM
- IC50 (MV-4-11): 500 to 2000 nM
- IC50 (HDAC1): 10 to 100 nM
- IC50 (MOLT-4): < 500 nM
- IC50 (K-562): 500 to 2000 nM
- IC50 (COLO 205): 500 to 2000 nM

SMILES: O=C(CCCCCCn1cnc2c(N3CCOCC3)nc(-c3cn[nH]c3)nc21)NO [compound 51, N-hydroxy-7-(6-morpholino-2-(1H-pyrazol-4-yl)-9H-purin-9-yl)heptanamide]
- IC50 (HDAC6): < 10 nM

SMILES: CC(C)n1cnc2c(N3CCOCC3)nc(-c3cccc(OCCCC(=O)NO)c3)nc21 [compound 83, N-hydroxy-4-(3-(9-isopropyl-6-morpholino-9H-purin-2-yl)phenoxy)butanamide]
- IC50 [1]: 100 to 1000 nM
- IC50 (HDAC1): 100 to 1000 nM
- IC50 (MOLT-4): 500 to 2000 nM
- IC50 (K-562): 2000 to 10000 nM
- IC50 (COLO 205): 2000 to 10000 nM

SMILES: CCn1c(CN(C)Cc2ccc(/C=C/C(=O)NO)cc2)nc2c(N3CCOCC3)nc(-c3ccc(OC)nc3)nc21 [compound 93, (E)-3-(4-((((9-ethyl-2-(6-methoxypyridin-3-yl)-6-morpholino-9H-purin-8-yl)methyl)(methyl)amino)methyl)phenyl)-N-hydroxyacrylamide]
- IC50 (PC-3): 2000 to 10000 nM
- IC50 [1]: 1000 to 10000 nM
- IC50 (MCF7): 2000 to 10000 nM
- IC50 (MV-4-11): 500 to 2000 nM
- IC50 (K-562): 2000 to 10000 nM
- IC50 (COLO 205): 2000 to 10000 nM

SMILES: O=C(CCCCCCn1cnc2c(N3CCC(O)CC3)nc(-c3cccc(CO)c3)nc21)NO [compound 105, N-hydroxy-7-(2-(3-(hydroxymethyl)phenyl)-6-(4-hydroxypiperidin-l-yl)-9H-purin-9-yl)heptanamide]
- IC50 [1]: < 10 nM
- IC50 (MCF7): 500 to 2000 nM
- IC50 (MV-4-11): < 500 nM
- IC50 (MOLT-4): < 500 nM
- IC50 (HCT 116): 500 to 2000 nM

SMILES: Nc1ncc(-c2nc(N3CCOCC3)nc3c2ncn3CCCCCCC(=O)NO)cn1 [compound 3]
- IC50 (HDAC6): 10 to 100 nM

SMILES: CC(C)n1cnc2c(-c3cccc(COCCCCC(=O)NO)c3)nc(N3CCOCC3)nc21 [compound 23, N-hydroxy-5-((3-(9-isopropyl-2-morpholino-9H-purin-6-yl)benzyl)oxy)pentanamide]
- IC50 [1]: 10 to 100 nM
- IC50 (HDAC1): 10 to 100 nM

SMILES: NC(=O)c1cccc(-c2nc(N3CCOCC3)c3ncn(CCCCCCC(=O)NO)c3n2)c1 [compound 49, 3-(9-(7-(hydroxyamino)-7-oxoheptyl)-6-morpholino-9H-purin-2-yl)benzamide]
- IC50 (HDAC6): < 10 nM

SMILES: COc1ccc(-c2nc(N3CCOCC3)c3ncn(CCCCCCC(=O)NO)c3n2)cn1 [compound 52, N-hydroxy-7-(2-(6-methoxypyridin-3-yl)-6-morpholino-9H-purin-9-yl)heptanamide]
- IC50 (HDAC6): 10 to 100 nM

SMILES: CC(C)n1cnc2c(N3CCOCC3)nc(-c3cccc(OCCCCCCC(=O)NO)c3)nc21 [compound 84, N-hydroxy-7-(3-(9-isopropyl-6-morpholino-9H-purin-2-yl)phenoxy)heptanamide]
- IC50 [1]: 10 to 100 nM
- IC50 (HDAC1): 100 to 1000 nM
- IC50 (MOLT-4): 2000 to 10000 nM
- IC50 (K-562): 2000 to 10000 nM
- IC50 (COLO 205): > 10000 nM

SMILES: CC(C)n1cnc2c(-c3ccc(F)c(OCCCC(=O)NO)c3)nc(N3CCCC3)nc21 [compound 63, 4-(2-fluoro-5-(9-isopropyl-2-(pyrrolidin-1-yl)-9H-purin-6-yl)phenoxy)-N-hydroxybutanamide]
- IC50 (PC-3): 2000 to 10000 nM
- IC50 [1]: 10 to 100 nM
- IC50 (MV-4-11): 500 to 2000 nM
- IC50 (COLO 205): 2000 to 10000 nM

SMILES: CC(C)n1c(NCc2ccc(C(=O)NO)cc2)nc2c(-c3cnc(N)nc3)nc(N3CCOCC3)nc21 [compound 80, 4-(((6-(2-aminopyrimidin-5-yl)-9-isopropyl-2-morpholino-9H-purin-8-yl)amino)methyl)-N-hydroxybenzamide]
- IC50 (HDAC1): 100 to 1000 nM
